Experimental data from PubChem BioAssay (NCI).
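All cell lines were grown in 96-well plates and treated with compound for 48 hours. TGI is the concentration that stops growth completely.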

Columns and labels:
Experiment in all cases: growth of human tumour cells (NCI), 48 h
OVCAR-5 ovarian = system: OVCAR-5 ovarian
UO-31 renal = system: UO-31 renal
A549 NSCLC = system: A549 NSCLC
U251 CNS = system: U251 CNS
PC-3 prostate = system: PC-3 prostate
MDA-MB-231 breast = system: MDA-MB-231 breast
NCI-H522 lung = system: NCI-H522 lung
DU-145 prostate = system: DU-145 prostate
CCRF-CEM leukemia = system: CCRF-CEM leukemia
A498 renal = system: A498 renal
SF-539 CNS = system: SF-539 CNS
UACC-62 melanoma = system: UACC-62 melanoma
HS 578T breast = system: HS 578T breast
HCT-116 colon = system: HCT-116 colon
SNB-19 CNS = system: SNB-19 CNS
RXF 393 renal = system: RXF 393 renal
IGROV1 ovarian = system: IGROV1 ovarian
NCI-H460 lung = system: NCI-H460 lung
HOP-92 NSCLC = system: HOP-92 NSCLC
HL-60(TB) leukemia = system: HL-60(TB) leukemia
SNB-75 CNS = system: SNB-75 CNS
SK-OV-3 ovarian = system: SK-OV-3 ovarian
NCI/ADR-RES ovarian = system: NCI/ADR-RES ovarian
OVCAR-4 ovarian = system: OVCAR-4 ovarian
SR leukemia = system: SR leukemia
OVCAR-3 ovarian = system: OVCAR-3 ovarian
COLO 205 colon = system: COLO 205 colon
HCT-15 colon = system: HCT-15 colon
HT29 colon = system: HT29 colon
KM12 colon = system: KM12 colon
T-47D breast = system: T-47D breast
NCI-H226 lung = system: NCI-H226 lung
HOP-62 NSCLC = system: HOP-62 NSCLC
ACHN renal = system: ACHN renal
MCF7 breast = system: MCF7 breast
LOX IMVI melanoma = system: LOX IMVI melanoma
MALME-3M melanoma = system: MALME-3M melanoma
SF-295 CNS = system: SF-295 CNS
SK-MEL-5 melanoma = system: SK-MEL-5 melanoma
MDA-N = system: MDA-N
MOLT-4 leukemia = system: MOLT-4 leukemia
CAKI-1 renal = system: CAKI-1 renal
NCI-H23 lung = system: NCI-H23 lung
K-562 leukemia = system: K-562 leukemia
MDA-MB-435 = system: MDA-MB-435
SK-MEL-28 melanoma = system: SK-MEL-28 melanoma
SF-268 CNS = system: SF-268 CNS
SN12C renal = system: SN12C renal
RPMI-8226 leukemia = system: RPMI-8226 leukemia
HCC-2998 colon = system: HCC-2998 colon
OVCAR-8 ovarian = system: OVCAR-8 ovarian
TK-10 renal = system: TK-10 renal
BT-549 breast = system: BT-549 breast
SW-620 colon = system: SW-620 colon
SK-MEL-2 melanoma = system: SK-MEL-2 melanoma
786-0 renal = system: 786-0 renal
UACC-257 melanoma = system: UACC-257 melanoma
EKVX NSCLC = system: EKVX NSCLC
M14 melanoma = system: M14 melanoma

Measured: TGI

NC1CCC(N(CC(=O)O)CC(=O)O)C(N(CC(=O)O)CC(=O)O)C1 (stereo not given)
> 100 µM: OVCAR-5 ovarian | UO-31 renal | A549 NSCLC | U251 CNS | PC-3 prostate | MDA-MB-231 breast | NCI-H522 lung | DU-145 prostate | CCRF-CEM leukemia | A498 renal | SF-539 CNS | UACC-62 melanoma | HS 578T breast | HCT-116 colon | SNB-19 CNS | RXF 393 renal | IGROV1 ovarian | NCI-H460 lung | HOP-92 NSCLC | HL-60(TB) leukemia | SNB-75 CNS | SK-OV-3 ovarian | NCI/ADR-RES ovarian | OVCAR-4 ovarian | SR leukemia | OVCAR-3 ovarian | COLO 205 colon | HCT-15 colon | HT29 colon | KM12 colon | T-47D breast | NCI-H226 lung | HOP-62 NSCLC | ACHN renal | MCF7 breast | LOX IMVI melanoma | MALME-3M melanoma | SF-295 CNS | SK-MEL-5 melanoma | MDA-N | MOLT-4 leukemia | CAKI-1 renal | NCI-H23 lung | K-562 leukemia | MDA-MB-435 | SK-MEL-28 melanoma | SF-268 CNS | SN12C renal | RPMI-8226 leukemia | HCC-2998 colon | OVCAR-8 ovarian | TK-10 renal | BT-549 breast | SW-620 colon | SK-MEL-2 melanoma

C/C=C1/CC(C)C(C)(O)C(=O)OCC2C(O)CN3CCC(OC1=O)C23 (stereo not given)
> 100 µM: OVCAR-5 ovarian | A549 NSCLC | U251 CNS | PC-3 prostate | MDA-MB-231 breast | NCI-H522 lung | DU-145 prostate | CCRF-CEM leukemia | A498 renal | SF-539 CNS | UACC-62 melanoma | HS 578T breast | HCT-116 colon | SNB-19 CNS | RXF 393 renal | IGROV1 ovarian | NCI-H460 lung | 786-0 renal | UACC-257 melanoma | HOP-92 NSCLC | HL-60(TB) leukemia | SNB-75 CNS | SK-OV-3 ovarian | NCI/ADR-RES ovarian | OVCAR-4 ovarian | SR leukemia | COLO 205 colon | HCT-15 colon | HT29 colon | KM12 colon | T-47D breast | NCI-H226 lung | HOP-62 NSCLC | ACHN renal | MCF7 breast | LOX IMVI melanoma | SF-295 CNS | SK-MEL-5 melanoma | MDA-N | MOLT-4 leukemia | CAKI-1 renal | NCI-H23 lung | K-562 leukemia | MDA-MB-435 | SF-268 CNS | SN12C renal | RPMI-8226 leukemia | HCC-2998 colon | OVCAR-8 ovarian | TK-10 renal | EKVX NSCLC | BT-549 breast | M14 melanoma | SW-620 colon | SK-MEL-2 melanoma
